The record followed here is patent US12509444B2, “Compounds and methods for CD73 modulation and indications therefor” (Plexxikon Inc., priority 2019, dated 2025).

Assay [1] concerns the target T1, Human CD73 (amino acid residues 27-549) (Homo sapiens, UniProt P21589).
T1 construct: Human CD73 (amino acid residues 27-549); His tag (N); made in house; host or cells: E. coli
T1 sequence (P21589 27-549): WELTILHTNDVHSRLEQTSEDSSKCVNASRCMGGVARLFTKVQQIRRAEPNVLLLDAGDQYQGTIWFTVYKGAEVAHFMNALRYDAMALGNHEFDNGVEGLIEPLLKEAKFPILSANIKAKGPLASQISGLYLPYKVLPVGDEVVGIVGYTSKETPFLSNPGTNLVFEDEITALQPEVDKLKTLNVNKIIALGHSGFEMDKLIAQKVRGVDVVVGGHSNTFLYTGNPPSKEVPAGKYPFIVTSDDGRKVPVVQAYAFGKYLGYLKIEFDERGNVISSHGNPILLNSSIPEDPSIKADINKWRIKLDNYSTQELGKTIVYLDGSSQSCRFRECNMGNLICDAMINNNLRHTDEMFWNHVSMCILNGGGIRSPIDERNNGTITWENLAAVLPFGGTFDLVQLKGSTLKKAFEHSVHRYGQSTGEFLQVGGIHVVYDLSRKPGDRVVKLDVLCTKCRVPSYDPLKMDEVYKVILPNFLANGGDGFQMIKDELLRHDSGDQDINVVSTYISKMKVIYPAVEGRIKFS
The assay is described as follows: CD73 enzymatic assay (luciferase-based indirect assay, CellTiter-Glo). Type of assay: biochemical. To be noted: 0.4 nM CD73, 150 μM AMP, 1 hour at room temperature. The procedure, abridged: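 Residual AMP inhibits luciferase, so luminescence reports CD73 turnover; read with CellTiter-Glo 2.0 plus 1 μM final ATP, 30 min. Reaction used 0.4 nM N-His CD73 (27-549, E. coli), 150 μM AMP, HEPES pH 7.4 with Tween 20, 1 h at room temperature. IC50 fitted by nonlinear regression.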

The target of assay [2] is T2, human CD73 (Homo sapiens, UniProt P21589).
T2 construct: expressed in transfected cells
T2 sequence (P21589 27-549): T1 sequence (P21589 27-549)
Briefly: Inhibitor activity against CD73 in cell based assay (CD73 expressing CHO-K1 cells). The settings on record: CHO-K1 cells expressing human CD73, 150 μM AMP, 4 hours of incubation; read-out: CHO-K1 CELL VARIANT: CD73 IC50. The procedure, abridged:
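Residual supernatant AMP was quantified via CellTiter-Glo luminescence (1 μM ATP added, 30 min, room temperature) after a 4 h exposure of human CD73-expressing CHO-K1 cells to 150 μM AMP plus compound, top final 10 μM, 8 points. IC50 came from nonlinear regression of percent inhibition.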

What is called IC50 is the concentration that gives 50% inhibition. With `O=C(NC1(c2ccc(F)cc2)CC1)O[C@@H]1CCN(c2cn[nH]c(=O)c2Cl)C1` [P-0362, (R)-1-(5-chloro-6-oxo-1,6-dihydropyridazin-4-yl)pyrrolidin-3-yl (1-(4-fluorophenyl)cyclopropyl) carbamate], the IC50 in assay [1] and in assay [2] was 0.001 to 10 µM in each case.
For the molecule `C=Cc1c(N2CC[C@@H](OC(=O)NC3CCCC3)C2)cn[nH]c1=O` [P-0363, (R)-1-(6-oxo-5-vinyl-1,6-dihydropyridazin-4-yl)pyrrolidin-3-yl cyclopentylcarbamate], the IC50 in assay [1] and in assay [2] was 0.001 to 10 µM throughout.
Take `O=C(N[C@H]1CC[C@H](NC(=O)c2ccccc2)C1)O[C@@H]1CCN(c2cn[nH]c(=O)c2Cl)C1` [P-0364, (R)-1-(5-chloro-6-oxo-1,6-dihydropyridazin-4-yl)pyrrolidin-3-yl ((1S,3S)-3-benzamidocyclopentyl) carbamate]: the IC50 in assay [1] and in assay [2] was 0.001 to 10 µM each time.
For the molecule `O=C(N[C@H]1CC[C@H](NS(=O)(=O)c2ccccc2F)C1)O[C@@H]1CCN(c2cn[nH]c(=O)c2Cl)C1` [P-0365, (R)-1-(5-chloro-6-oxo-1,6-dihydropyridazin-4-yl)pyrrolidin-3-yl ((1S,3S)-3-((2-fluorophenyl)sulfonamido)cyclopentyl)carbamate], the 50% inhibitory concentration (IC50) in assay [1] and in assay [2] was 0.001 to 10 µM each time.
With `COc1ccc(S(=O)(=O)C[C@H]2CC[C@H](NC(=O)O[C@@H]3CCN(c4cn[nH]c(=O)c4Cl)C3)CC2)cc1` [P-0366, (R)-1-(5-chloro-6-oxo-1,6-dihydropyridazin-4-yl)pyrrolidin-3-yl ((1r,4R)-4-(((4-methoxyphenyl)sulfonyl)methyl)cyclohexyl)carbamate], the IC50 in assay [1] and in assay [2] was 0.001 to 10 µM throughout.
`O=C(N[C@@H]1CC[C@H]1C(F)(F)F)O[C@@H]1CCN(c2cn[nH]c(=O)c2Cl)C1` [P-0367, (R)-1-(5-chloro-6-oxo-1,6-dihydropyridazin-4-yl)pyrrolidin-3-yl ((1R,2R)-2-(trifluoromethyl)cyclobutyl) carbamate]: the IC50 in assay [1] and in assay [2] was 0.001 to 10 µM throughout.
`O=C(N[C@H]1C[C@@](O)(C(F)(F)F)C1)O[C@@H]1CCN(c2cn[nH]c(=O)c2Cl)C1` [P-0368, (R)-1-(5-chloro-6-oxo-1,6-dihydropyridazin-4-yl)pyrrolidin-3-yl ((1r,3r)-3-hydroxy-3-(trifluoromethyl)cyclobutyl)carbamate]: the IC50 in assay [1] and in assay [2] was 0.001 to 10 µM each time.
Regarding `O=C(NC1CCN(C(=O)c2ccccc2)CC1)O[C@@H]1CCN(c2cn[nH]c(=O)c2Cl)C1` [P-0369, (R)-1-(5-chloro-6-oxo-1,6-dihydropyridazin-4-yl)pyrrolidin-3-yl (1-benzoylpiperidin-4-yl)carbamate], the 50% inhibitory concentration (IC50) in assay [1] and in assay [2] was 0.001 to 10 µM each time.
For the molecule `O=C(NC1CCN(C(=O)C2CCC2)CC1)O[C@@H]1CCN(c2cn[nH]c(=O)c2Cl)C1` [P-0370, (R)-1-(5-chloro-6-oxo-1,6-dihydropyridazin-4-yl)pyrrolidin-3-yl (1-(cyclobutanecarbonyl)piperidin-4-yl)carbamate], the half-inhibitory concentration (IC50) in assay [1] and in assay [2] was 0.001 to 10 µM throughout.
Regarding `O=C(NC1CCN(C(=O)c2ccno2)CC1)O[C@@H]1CCN(c2cn[nH]c(=O)c2Cl)C1` [P-0371, (R)-1-(5-chloro-6-oxo-1,6-dihydropyridazin-4-yl)pyrrolidin-3-yl (1-(isoxazole-5-carbonyl)piperidin-4-yl)carbamate], the IC50 in assay [1] and in assay [2] was 0.001 to 10 µM throughout.
Consider `CC(C)C(=O)N1CCC(NC(=O)O[C@@H]2CCN(c3cn[nH]c(=O)c3Cl)C2)CC1` [P-0372, (R)-1-(5-chloro-6-oxo-1,6-dihydropyridazin-4-yl)pyrrolidin-3-yl (1-isobutyrylpiperidin-4-yl)carbamate], for which the IC50 in assay [1] and in assay [2] was 0.001 to 10 µM throughout.
Turning to `CC(C)(C)C(=O)N1CCC(NC(=O)O[C@@H]2CCN(c3cn[nH]c(=O)c3Cl)C2)CC1` [P-0373, (R)-1-(5-chloro-6-oxo-1,6-dihydropyridazin-4-yl)pyrrolidin-3-yl (1-pivaloylpiperidin-4-yl)carbamate], the IC50 in assay [1] and in assay [2] was 0.001 to 10 µM throughout.
With `O=C(NC1CCN(C(=O)Cc2ccccc2)CC1)O[C@@H]1CCN(c2cn[nH]c(=O)c2Cl)C1` [P-0374, (R)-1-(5-chloro-6-oxo-1,6-dihydropyridazin-4-yl)pyrrolidin-3-yl (1-(2-phenylacetyl)piperidin-4-yl)carbamate], the concentration for half-maximal inhibition (IC50) in assay [1] and in assay [2] was 0.001 to 10 µM throughout.
Consider `CC(C)CC(=O)N1CCC(NC(=O)O[C@@H]2CCN(c3cn[nH]c(=O)c3Cl)C2)CC1` [P-0375, (R)-1-(5-chloro-6-oxo-1,6-dihydropyridazin-4-yl)pyrrolidin-3-yl (1-(3-methylbutanoyl)piperidin-4-yl)carbamate], for which the IC50 in assay [1] and in assay [2] was 0.001 to 10 µM each time.
For the molecule `CCC(=O)N1CCC(NC(=O)O[C@@H]2CCN(c3cn[nH]c(=O)c3Cl)C2)CC1` [P-0376, (R)-1-(5-chloro-6-oxo-1,6-dihydropyridazin-4-yl)pyrrolidin-3-yl (1-propionylpiperidin-4-yl)carbamate], the IC50 in assay [1] and in assay [2] was 0.001 to 10 µM throughout.
As for `O=C(NC1CCN(C(=O)C2CCCC2)CC1)O[C@@H]1CCN(c2cn[nH]c(=O)c2Cl)C1` [P-0377, (R)-1-(5-chloro-6-oxo-1,6-dihydropyridazin-4-yl)pyrrolidin-3-yl (1-(cyclopentanecarbonyl)piperidin-4-yl)carbamate], the IC50 in assay [1] and in assay [2] was 0.001 to 10 µM in each case.
As to `CCc1c(N2CC[C@@H](OC(=O)NC3CCC(F)(F)CC3)C2)cn[nH]c1=O` [P-0378, (R)-1-(5-ethyl-6-oxo-1,6-dihydropyridazin-4-yl)pyrrolidin-3-yl (4,4-difluorocyclohexyl)carbamate], the values for the IC50 in assay [1] and in assay [2] were 0.001 to 10 µM and 10 to 100 µM, respectively.
In the same order, the values of `N#C[C@H]1CCC[C@H]1NC(=O)O[C@@H]1CCN(c2cn[nH]c(=O)c2Cl)C1` [P-0379, (R)-1-(5-chloro-6-oxo-1,6-dihydropyridazin-4-yl)pyrrolidin-3-yl ((1R,2S)-2-cyanocyclopentyl)carbamate] are 0.001 to 10 µM and 0.001 to 10 µM.
In the same order, the values of `N#C[C@@H]1CCC[C@H]1NC(=O)O[C@@H]1CCN(c2cn[nH]c(=O)c2Cl)C1` [P-0380, (R)-1-(5-chloro-6-oxo-1,6-dihydropyridazin-4-yl)pyrrolidin-3-yl ((1R,2R)-2-cyanocyclopentyl)carbamate] are 0.001 to 10 µM and 0.001 to 10 µM.
As to `CC1CCCC1NC(=O)O[C@@H]1CCN(c2cn[nH]c(=O)c2Cl)C1` (stereo partly drawn) [P-0381, (R)-1-(5-chloro-6-oxo-1,6-dihydropyridazin-4-yl)pyrrolidin-3-yl (2-methylcyclopentyl)carbamate], the IC50 in assay [1] and in assay [2] was 0.001 to 10 µM in each case.
On to `COC(=O)C12CCC(NC(=O)O[C@@H]3CCN(c4cn[nH]c(=O)c4Cl)C3)(CC1)C2` [P-0382, methyl (R)-4-((((1-(5-chloro-6-oxo-1,6-dihydropyridazin-4-yl)pyrrolidin-3-yl)oxy)carbonyl)amino)bicyclo[2.2.1]heptane-1-carboxylate], for which the IC50 in assay [1] and in assay [2] was 0.001 to 10 µM in each case.
For the molecule `O=C(N[C@H]1CCC[C@H]1C(F)(F)F)O[C@@H]1CCN(c2cn[nH]c(=O)c2Cl)C1` [P-0383, (R)-1-(5-chloro-6-oxo-1,6-dihydropyridazin-4-yl)pyrrolidin-3-yl ((1S,2R)-2-(trifluoromethyl)cyclopentyl) carbamate], the IC50 in assay [1] and in assay [2] was 0.001 to 10 µM in each case.
With `O=C(N[C@@H]1CCC[C@H]1O)O[C@@H]1CCN(c2cn[nH]c(=O)c2Cl)C1` [P-0384, (R)-1-(5-chloro-6-oxo-1,6-dihydropyridazin-4-yl)pyrrolidin-3-yl ((1R,2R)-2-hydroxycyclopentyl)carbamate], the IC50 in assay [1] and in assay [2] was 0.001 to 10 µM in each case.
Turning to `O=C(NC1CC2CC2C1)O[C@@H]1CCN(c2cn[nH]c(=O)c2Cl)C1` (stereo partly drawn) [P-0385, (R)-1-(5-chloro-6-oxo-1,6-dihydropyridazin-4-yl)pyrrolidin-3-yl bicyclo[3.1.0]hexan-3-ylcarbamate], the IC50 in assay [1] and in assay [2] was 0.001 to 10 µM each time.
As for `O=C(NC1CCCC1(F)F)O[C@@H]1CCN(c2cn[nH]c(=O)c2Cl)C1` (stereo partly drawn) [P-0386, (R)-1-(5-chloro-6-oxo-1,6-dihydropyridazin-4-yl)pyrrolidin-3-yl (2,2-difluorocyclopentyl)carbamate], the IC50 in assay [1] and in assay [2] was 0.001 to 10 µM throughout.
